Entries after “also recorded” stand apart in the source; their conditions may differ.
How the values were obtained:
[1] = Toxicity (body weight, deaths) in NCI-H1993 xenograft study; format: in vivo; details: c-Met inhibitor 17.7 mg/kg p.o. b.i.d. to end
Protocol: Animals are weighed on Days 1-5, on each treatment day (except weekends), and twice weekly thereafter, until the end of the study. The maximum group mean body weight (BW) loss is determined for the interval between D1 and D20 as well as for the entire study. Group mean BW nadir determinations exclude measurements taken after more than 50% of the assessable mice in the group have exited the study, and also exclude any animal that was classified as a non-treatment related (NTR) death during the study. Acceptable toxicity for the maximum tolerated dose (MTD) is defined as a group mean BW loss of less than 15% during the test, and not more than one TR death among ten animals. Any animal with BW losses exceeding 15% for three consecutive measurements, or with a BW loss exceeding 20% for one measurement, are euthanized, and classified as a TR death unless it was the first death in the group. A death is classified as NTR if there was no evidence that the death is related to treatment side effects and the death occurs more than 14 days after dosing ended. NTR deaths are categorized as NTRa (due to accident or error), NTRu (due to unknown causes), or NTRm (necropsy-confirmed tumor dissemination by invasion and/or metastasis). To conserve animals while providing maximum information, the first death in a group was classified as NTRu; such an NTR death was to be reclassified as TR if two subsequent TR deaths are recorded in the same group.

LN-229 = experiment: CellTiter-Glo cell viability dose matrix in LN-229 glioblastoma cells; format: cell-based, human; details: LN229 (PTEN wildtype, HGF low)
Protocol: The PI3K inhibitor COMPOUND C and the c-MET receptor tyrosine kinase inhibitor 2-fluoro-N-methyl-4-[7-quinolin-6-yl-methyl)-imidazo[1,2-b][1,2,4]triazin-2yl]benzamide are evaluated in combination in glioblastoma tumor models. COMPOUND C (10 mM) and 2-fluoro-N-methyl-4-[7-quinolin-6-yl-methyl)-imidazo[1,2-b][1,2,4]triazin-2yl]benzamide (10 mM) are dissolved in DMSO, and are stored in aliquots at −20° C.
Human Glioblastoma cell lines, U-87 MG (PTEN mutant and HGF expressing line), H4 (PTEN mutant and HGF expressing line), A172 (PTEN mutant line with low HGF expression level) and LN-229 (PTEN wildtype and HGF low) are purchased from American Type Cell Collection and are maintained in a humidified incubator at 37° C. in 5% CO2 in recommended media. All four cell lines express detected MET at the mRNA level.
The cells are passaged twice a week and the medium is changed every 2 to 3 days. […]
Cell viability is determined by measuring cellular ATP content using the CellTiter-Glo® (CTG) luminescent cell viability assay (Promega). […] An equal volume of the CTG reagents is added to each well at the end of the compound treatment and luminescence is recorded on an Envision plate reader (Perkin Elmer). Reduced and enhanced luminescent signal values (responses) are calculated relative to untreated (control) cells. […]

[2] = tested on: NCI-H1993 human non-small cell lung carcinoma xenograft; experiment: NCI-H1993 xenograft tumor growth inhibition and tumor growth delay; format: in vivo, athymic nude mice; details: c-Met inhibitor 17.7 mg/kg p.o. b.i.d. to end
Source text: In this experiment, the NCI-H1993 human non-small cell lung carcinoma xenograft model is used to assess the anti-tumor efficacy of the PI3K inhibitor COMPOUND D and c-Met inhibitor 2-fluoro-N-methyl-4-[7-quinolin-6-yl-methyl)-imidazo[1,2-b][1,2,4]triazin-2yl]benzamide as single agents or in combination. NCI-H1993 tumor cells obtained from the American Type Culture Collection (ATCC) are derived from a lymph node metastasis of a patient having a stage 3A lung adenocarcinoma and a history of smoking.
Female athymic nude mice (Crl:NU (Ncr)-Foxn1^nu, Charles River) are 8 weeks old, and have a body weight (BW) range of 16.1-26.2 g, on D1 of the study. The animals are fed ad libitum water (reverse osmosis, 1 ppm CI) and NIH 31 Modified and Irradiated Lab Diet® consisting of 18.0% crude protein, 5.0% crude fat, and 5.0% crude fiber. The mice are housed on irradiated Enrich-O'cobs™ Laboratory Animal Bedding in static microisolators on a 12-hour light cycle at 20-22° C. (68-72° F.) and 40-60% humidity.
The NCI-H1993 tumor line is obtained from the American Type Culture Collection and maintained at DRS_NC in RPMI-1640 medium containing 100 unites/penicillin G sodium, 100 µg/mL streptomycin sulfate, 25 µg/mL gentamicin, 10% fetal bovine serum, and 2 mM glutamine. The tumor cells are cultured in tissue culture flasks in a humidified incubator at 37° C. in an atmosphere of 5% CO2 and 95% air.
The tumor cells used for implementation are harvested during log phase growth and resuspended in cold PBS containing 50% Matrigel™ (BD Biosciences). Each mouse is injected subcutaneously in the right flank with 1×10^7 cells (0.2 mL cell suspension). Tumors are calipered in two dimensions to monitor growth as their mean volume approached the desired 200-250 mm^3 range. Tumor size, in mm^3, was calculated from: Tumor Volume=(width^2×length)/2, where width and length (in mm) are measurements of the tumor. Tumor weight can be estimated with the assumption that 1 mg is equivalent to 1 mm^3 of tumor volume. Fourteen days after tumor cell implantation, on D1 of the study, mice with individual tumor volumes of 172-256 mm^3 are sorted into groups of ten mice, with group mean tumor volumes of 206-215 mm^3.
The c-Met inhibitor 2-fluoro-N-methyl-4-[7-quinolin-6-yl-methyl)-imidazo[1,2-b][1,2,4]triazin-2yl]benzamide (HCl salt, 84.98% free base) is stored at 4° C. and is added to a volume of deionized water equal to 1/2 of the final volume and sonicated until dissolved to obtain a uniform 2× suspension. An equal volume of 0.5% methylcellulose: 0.1% Tween® 80 is added to provide a 1.77 mg/mL solution with final vehicle concentrations of 0.25% methylcellulose and 0.05% Tween® 80 in deionized water (Vehicle 1). Fresh solutions are prepared once daily for the […]. dosing and stored at room temperature until the a.m. dosing.
COMPOUND D is suspended at 3.0 mg/mL in 0.5% methylcellulose in deionized water. The vehicle is added in portions equal to 1/3 of the final volume. The suspension is vortexed after each addition, and then finally probe sonicated on ice to prepare a homogeneous white suspension. A fresh suspension is prepared weekly, stored at 4° C., and re-suspended prior to dosing.
The c-MET inhibitor and the vehicle is each administered via oral gavage (p.o.) twice daily for the duration of the study (b.i.d. to end). COMPOUND D is administered via oral gavage (p.o.) once daily for the duration of the study (qd to end). In combination therapies, COMPOUND D is dosed within 30 minutes after the c-Met inhibitor. In all groups, the dosing volume of 10 mL/kg (0.2 mL/20 g mouse) is scaled to the weight of each animal as determined on the day of dosing, except on weekends when the previous BW is carried forward.
The groups of nude mice (n=10/group) are treated as follows. Group 1 receive Vehicle 1 and Vehicle 2 and serve as controls for the study. […] Group 3 receives 30 mg/kg COMPOUND D monotherapy once daily for the duration of the study (qd to end).

CNC(=O)c1ccc(-c2cnc3ncc(Cc4ccc5ncccc5c4)n3n2)cc1F [c-Met inhibitor]
Deaths: NTR [1]: (1 NTR) | deaths due to individual body weight losses [1]: One | anti-proliferative activity (single agent) (LN-229): completely inactive | % TGD [2]: 97% | D71 survivors [2]: four | T-C [2]: 24.2 days | T/C or T/T0 ([2]; D20): 15% | Median TTE ([2]; endpoint 600 mm3): 49.2 days | overall survival (in words) ([2]; logrank vs control): significantly extends survival; also recorded: significant survival extension | D20 tumor growth inhibition (in words) ([2]; vs control Group 1): does not achieve significant inhibition relative to control; also recorded: non-significant D20 tumor growth inhibition

— patent publication US20150216870A1, “Combination of PI3K Inhibitor and C-Met Inhibitor” (Novartis AG, priority 2012, published 2015)
